Experimental findings from publication PMC12226389, “Icariin interacts with IGFBP3 to alleviate diabetic cataract through PI3K/AKT signaling pathway” (iScience, 2025) are described below.

The target of the test is T1, IGFBP3 (Homo sapiens, UniProt P17936).
T1 construct: protein immobilised on CM5 chip
Kind of test: SPR (Biacore T200, CM5 chip, immobilised IGFBP3). The test is classed as binding.

Structures are written as SMILES.

T1 sequence (P17936 28-291): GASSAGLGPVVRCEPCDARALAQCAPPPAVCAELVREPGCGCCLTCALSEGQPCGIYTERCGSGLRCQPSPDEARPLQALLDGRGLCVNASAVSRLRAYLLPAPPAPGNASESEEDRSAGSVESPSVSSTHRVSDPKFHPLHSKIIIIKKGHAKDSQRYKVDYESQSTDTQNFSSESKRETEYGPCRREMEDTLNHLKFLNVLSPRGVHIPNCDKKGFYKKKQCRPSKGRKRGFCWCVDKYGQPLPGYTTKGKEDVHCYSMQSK

As a reminder, the Kd is the concentration at which binding is half-saturated. A low value points to higher affinity. `COc1ccc(-c2oc3c(CC=C(C)C)c(O[C@@H]4O[C@H](CO)[C@@H](O)[C@H](O)[C@H]4O)cc(O)c3c(=O)c2O[C@@H]2O[C@@H](C)[C@H](O)[C@@H](O)[C@H]2O)cc1` [Icariin] displayed a Kd of 131 µM.
